ED50 data for four molecules are collected here from ChEMBL document CHEMBL1124596, “Introduction of a putative dopaminergic prodrug moiety into a 6,7-substitution pattern characteristic of certain 2-aminotetralin dopaminergic agonists” (1989).

Molecules are shown by their SMILES.

In the experiment the test system is Felis catus. Kind of experiment: Inhibition of cat cardiac response to cardioaccelerator nerve stimulation, when administered intravenously. Format: functional. Conditions: iv, read-out: ID50 (the source's name).
For `CCCN(CCC)C1CCc2c(ccc(C)c2O)C1` (centres undefined), the ED50 was found to be 0.25 µmol/kg. For `CCCN(CCC)C1CCc2cc(C)c(O)cc2C1` (centres undefined) the value was 0.54 µmol/kg; for `CCCN(CCC)C1CCc2cc(O)c(C)cc2C1` (centres undefined), 1.75 µmol/kg; for `CN1CCc2cccc3c2[C@H]1Cc1ccc(O)c(O)c1-3` [APOMORPHINE], 0.035 µmol/kg.
